{"source": "patent US11414377B2", "about": "“Modulator of metabotropic and ionotropic transmembrane receptors and use thereof” (IBD THERAPEUTICS LLC, priority 2018, dated 2022)", "key": {"balb/c male mice": {"system": "balb/c male mice", "test": "Acute pain response model, administration of mustard oil in mice", "format": "in vivo", "description": "The study of the activity of the compound on the acute pain response model was conducted using a standard procedure (Laird M. A., Martinez-Caro L., Garcia-Nicas E., Cervero F. A new model of visceral pain and referred hyperalgesia in the mouse//J. Pain 92 (2001). P. 335-342).\nThe study was carried out on balb/c male mice, the individual weight of which deviates from the mean value within the sex of no more than ±10%. First, the mice were lightly anesthetized (after 24 hours of fasting). Then 1% solution of mustard oil in physiological solution was introduced to the animals at 4 cm in depth with the help of catheter 3.5 F. The solvent was introduced to the healthy control. 5 minutes after the introduction of the mustard oil, the presence of pain in the animal (a number of abdominal lickings, abdominal wall abductions, lower abdominal deformity to the floor, abdominal distension) was evaluated during the first 20 minutes. Compound I was administered once intragastrically 1 hour before the administration of mustard oil. The obtained data were checked using the Grubb's test for the presence of the largest or smallest abnormal observation (ejection) in the sample. Values determined “to be eliminated” in this test were not used for further assay. For all data, descriptive statistics was used: a mean value (M) and standard error of the mean value (m) were counted up. The normality of distribution of the values obtained in the course of the experiment was checked with the aid of the Kolmogorov-Smirnov test. In the case of normal distribution, Student's t-test (t-test) was used to evaluate the inter-group distinctions. In the case of the distribution that is other than the normal one the Kruskall-Wallis test (with Dann's post hoc test) was used for the comparison of several groups. Distinctions were determined at 5% at a level of confidence."}, "[1]": {"system": "guinea pigs of Agouti line", "test": "Capsaicin cough model in guinea pigs, inhalation administration", "format": "in vivo"}, "NK3R": {"molecular_target": "T1, NK3R (Homo sapiens, UniProt P29371)", "T1 construct": "expressed in transfected cells; host or cells: CHO-K1 cells", "T1 sequence (P29371 1-465)": "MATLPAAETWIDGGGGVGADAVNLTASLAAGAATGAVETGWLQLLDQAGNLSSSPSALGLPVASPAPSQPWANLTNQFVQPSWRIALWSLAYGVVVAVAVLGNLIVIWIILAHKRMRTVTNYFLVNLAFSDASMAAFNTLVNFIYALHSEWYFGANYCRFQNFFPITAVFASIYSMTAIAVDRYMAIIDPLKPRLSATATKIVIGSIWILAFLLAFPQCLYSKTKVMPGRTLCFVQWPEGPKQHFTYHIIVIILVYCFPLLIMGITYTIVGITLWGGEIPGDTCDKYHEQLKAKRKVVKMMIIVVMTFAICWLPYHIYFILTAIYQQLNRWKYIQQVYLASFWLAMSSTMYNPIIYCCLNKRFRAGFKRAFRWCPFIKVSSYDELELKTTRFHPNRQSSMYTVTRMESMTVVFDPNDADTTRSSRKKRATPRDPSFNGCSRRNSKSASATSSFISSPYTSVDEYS", "test": "Effect on activity of tachykinin receptor type 3 (intracellular calcium, fluorescence)", "format": "cell-based", "conditions": "CHO-K1 cells expressing NK3R, agonist [MePhe10]-NKB 1 nM, read-out: IC50, antagonist of tachykinin receptor type 3", "description": "Compound I was dissolved in DMSO to a concentration of 100 mM; then the stock solution was serially diluted with DMSO. The maximal start concentration of substance is 100 μM. The effect was determined at 5 concentrations of test compounds, each concentration was investigated twice. CHO-K1 cells expressing NK3R were used in the experiment, said cells after the preincubation with an agonist [MePhe10]-NKB (1 nM) were incubated with the test compound. The activity of receptors was determined by the intracellular calcium concentration using fluorescence spectroscopy (Br J Pharmacol. 1999 October; 128(3):627-36)."}, "TRPV1 ion channel": {"molecular_target": "T2, TRPV1 ion channel (Homo sapiens, UniProt Q8NER1)", "T2 construct": "expressed in transfected cells; host or cells: CHO cells", "T2 sequence (Q8NER1 whole entry)": "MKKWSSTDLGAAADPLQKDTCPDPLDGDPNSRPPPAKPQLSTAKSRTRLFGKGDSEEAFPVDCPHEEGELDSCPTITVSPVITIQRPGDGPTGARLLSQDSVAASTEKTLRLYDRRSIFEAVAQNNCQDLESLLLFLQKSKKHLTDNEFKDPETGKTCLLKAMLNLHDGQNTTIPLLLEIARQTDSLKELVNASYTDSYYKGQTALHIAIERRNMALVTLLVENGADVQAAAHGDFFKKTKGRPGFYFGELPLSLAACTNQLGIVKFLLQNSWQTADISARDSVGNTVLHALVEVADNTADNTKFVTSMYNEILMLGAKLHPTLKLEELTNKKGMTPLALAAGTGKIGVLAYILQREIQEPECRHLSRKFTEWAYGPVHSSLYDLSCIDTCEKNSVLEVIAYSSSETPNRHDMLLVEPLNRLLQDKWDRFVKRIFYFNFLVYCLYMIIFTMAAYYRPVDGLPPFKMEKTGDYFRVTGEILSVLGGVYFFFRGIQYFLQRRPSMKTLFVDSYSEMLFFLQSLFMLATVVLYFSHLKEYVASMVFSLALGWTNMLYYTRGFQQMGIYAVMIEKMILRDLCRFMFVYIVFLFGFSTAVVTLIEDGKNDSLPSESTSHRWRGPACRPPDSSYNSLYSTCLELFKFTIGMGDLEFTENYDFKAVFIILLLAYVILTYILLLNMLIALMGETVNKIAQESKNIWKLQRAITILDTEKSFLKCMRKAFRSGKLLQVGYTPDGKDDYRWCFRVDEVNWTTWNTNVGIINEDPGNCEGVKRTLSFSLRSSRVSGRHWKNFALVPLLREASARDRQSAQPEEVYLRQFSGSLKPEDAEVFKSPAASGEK", "test": "Effect on activity of TRPV1 ion channel (Fluo-4 AM calcium)", "format": "cell-based", "conditions": "TRPV1 expressing CHO cells; Capsaicin 30 nM; intracellular calcium; read-out: IC50, blocker of TRPV1 ion channel", "description": "Compound I was dissolved in DMSO to a concentration of 100 mM; then the stock solution was serially diluted with DMSO to prepare a test solution with the concentration of substance equal to 50 μM. TRPV1 expressing CHO cells were used in the experiment. At the day of the experiment, the cells were incubated with a 4 μM of a solution of fluorescent indicator Fluo-4 AM. The cells after the preincubation with Capsaicin (30 nM), the known agonist of […] ion channel, were incubated with the test compound. The activity of receptors was determined by the intracellular calcium concentration using fluorescence spectroscopy (Behrendt, H. J. et al. (2004), Br. J. Pharmacol., 141: 737-745. FINAL)."}, "human NK2R": {"molecular_target": "T3, human NK2R (Homo sapiens, UniProt P21452)", "T3 construct": "expressed in transfected cells; host or cells: CHO cells", "T3 sequence (P21452 1-398)": "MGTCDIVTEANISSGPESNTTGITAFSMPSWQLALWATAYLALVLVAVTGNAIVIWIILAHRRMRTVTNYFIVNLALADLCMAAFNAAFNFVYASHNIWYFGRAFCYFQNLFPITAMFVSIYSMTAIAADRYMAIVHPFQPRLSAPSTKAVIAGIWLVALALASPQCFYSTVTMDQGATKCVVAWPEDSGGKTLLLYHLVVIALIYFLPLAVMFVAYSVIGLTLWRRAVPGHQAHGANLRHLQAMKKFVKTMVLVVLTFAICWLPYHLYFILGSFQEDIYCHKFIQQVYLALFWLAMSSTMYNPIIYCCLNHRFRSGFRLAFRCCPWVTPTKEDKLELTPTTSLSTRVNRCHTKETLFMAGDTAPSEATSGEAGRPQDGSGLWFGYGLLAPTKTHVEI", "test": "Effect on activity of tachykinin receptor type 2 (intracellular calcium, fluorescence)", "format": "cell-based", "conditions": "CHO cells expressing human NK2R, agonist [Nleu10]-NKA-(4-10) 10 nM, read-out: IC50, antagonist of tachykinin receptor type 2", "description": "Compound I was dissolved in DMSO to a concentration of 100 mM; then the stock solution was serially diluted with DMSO. The maximal start concentration of substance is […]. The effect was determined at 8 concentrations of test compound, each concentration was investigated twice. CHO cells expressing human NK2R were used in the experiment, said cells after the preincubation with an agonist [Nleu10]-NKA-(4-10) (10 nM) were incubated with the test compound. The activity of receptors was determined by the intracellular calcium concentration using fluorescence spectroscopy (Biochem Biophys Res Commun. 1994 May 16; 200(3):1512-20)."}}}
{"smiles": "O=C(Cc1ccc(O)cc1)N[C@@H](Cc1ccccc1)C(=O)NCCc1ccccc1", "note": "[Compound I, 2-phenylethylamide N-(p-hydroxyphenylacetyl)phenylalanine]", "values": [{"measurement": "Number of pain sensations, 0-20 min", "setting": "balb/c male mice; 15 mg/kg once intragastrically 1 hour prior to mustard oil, control 10.4 ± 1.59, intact 2.2 ± 0.33", "value": "2.56 ± 0.78 &"}, {"measurement": "Number of pain sensations, 0-20 min", "setting": "balb/c male mice; 1.5 once intragastrically 1 hour prior to mustard oil, control 10.4 ± 1.59", "value": "14.8 ± 3.01"}, {"measurement": "Number of pain sensations, 0-20 min", "setting": "balb/c male mice; 3 once intragastrically 1 hour prior to mustard oil, control 10.4 ± 1.59", "value": "8.56 ± 0.94"}, {"measurement": "Number of pain sensations, 0-20 min", "setting": "balb/c male mice; 7.5 once intragastrically 1 hour prior to mustard oil, control 10.4 ± 1.59", "value": "15.1 ± 1.7"}, {"measurement": "Suppression of cough (% from the control)", "setting": "[1]; 0.25 mg/kg by inhalation 15 minutes before capsaicin", "value": 46.7, "unit": "%"}, {"measurement": "A number of cough attacks for 15 minutes from the start of inhalation (test)", "setting": "[1]; 0.25 mg/kg by inhalation 15 minutes before capsaicin 30 μM, control 15.2 ± 0.8", "value": "8.1 ± 0.2*&"}, {"measurement": "IC50", "setting": "NK3R", "value": 15, "unit": "µM"}, {"measurement": "IC50", "setting": "TRPV1 ion channel", "value": 51, "unit": "µM"}, {"measurement": "IC50", "setting": "human NK2R", "value": 6.4, "unit": "µM"}]}
